In patent US20230041563A1, “N-(1,3,4-OXADIAZOL-2-YL)ARYLCARBOXAMIDES OR SALTS THEREOF, PREPARATION METHODS, HERBICIDAL COMPOSITIONS AND USES THEREOF” (priority 2018, published 2023):

Tests used:
Green Setaria viridis = experiment: Post-emergence control experiment of R configuration compound activity (weeds 4-5 leaf stage, 25 days); assay type: in vivo; details: Setaria viridis, post-emergence
Description: (§1) Experiment on weeding effect in post-emergence stage: after 3-4 weeks of sowing, the test plants were treated in the 1.5-2 leaf stage of the directly sowed rice Longyang 16, and the 4-5 leaf stage of weeds. After the application of the compounds of the present invention, the plants were cultured for 25 days in the greenhouse, and then the experimental results of the weeding were counted.

Leptochloa chinensis = experiment: as above; assay type: in vivo; details: Dinebra chinensis, post-emergence
Description: as §1

Abutilon theophrasti [1] = experiment: as above; assay type: in vivo; details: Abutilon theophrasti, post-emergence; read-out: Ablation theophrasti (30 g a.i./ha) inhibition rate
Description: as §1

Digitaria sanguinalis [2] = experiment: as above; assay type: in vivo; details: Digitaria sanguinalis, post-emergence; read-out: Digitaria sanguinalis (30 g a.i./ha) inhibition rate
Description: as §1

[3] = tested on: Indica rice (Huanghuazhan); experiment: Safety test of control experiments on rice; assay type: in vivo; details: Dose 250 g a.i./ha
From the text: (§2) The activity level criteria for plant damage (i.e., growth control rate) are as follows: Comparative Experiments: [table]

[4] = tested on: Japonica rice (Huaidao No. 5); experiment: Safety test of control experiments on rice; assay type: in vivo; details: Dose 250 g a.i./ha
From the text: as §2

[5] = tested on: gramineous weed (Echinochloa crusgali, Leptochloa chinensis or Digitaria sanguinalis); experiment: Post-emergence activity on gramineous weed, comparison between compounds; assay type: in vivo; details: at low doses; versus Compound 1-2
From the text: Experiment on weeding effect in post-emergence stage: monocotyledonous and dicotyledonous weed seeds (Descurainia sophia, Capsella bursa-pastoris, Abutilon theophrasti, Galium aparine, Stellaria media, Lithospermum arvense, rorippa indica, Alopecurus aequalis, Beckmannia syzigachne, Sclerochloa dura, Phleum paniculatum, Bromus japonicus, Aegilops tauschii, Phalaris arundinacea, Amaranthus retroflexus, Chenopodiaceae, Commelina communis, Sonchus arvensis, convolvulus arvensis, Cirsium setosum, Solanum nigrum, Acalypha australis, Digitaria sanguinalis, Echinochloa crusgalli, Setaria viridis, Setaria glauca, Leptochloa chinensis, Monochoria vaginalis, Sagittaria trifolia, Scirpus juncoides, Cyperus rotundus, Cyperus iria, Cyperus difformis, Fimbristylis, Portulaca oleracea, Xanthium sibiricum, Pharbitis nil) and major crop seeds (wheat, corn, rice, soybean, cotton, oilseed rape, millet, sorghum, potato, sesame, ricinus) were placed in plastic pots filled with soil, then covered with 0.5-2 cm of soil, allowed to grow in a good greenhouse environment. After 2 weeks of sowing, the test plants were treated in the 2 to 3 leaf stage. […] After the application, the plants were cultured for 3 weeks in the greenhouse, and then the experimental results of the weeding were counted. […]

Setaria viridis = experiment: Weeding effect in post-emergence stage (greenhouse pot spray); assay type: in vivo; details: Table 3, dose 60 g a.i./ha
In short: (§3)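 Greenhouse pot plants at the 2–3 leaf stage (2 weeks after sowing) were sprayed with compound in acetone with Tween 80 and methyl oleate EC synergist (1.5 L/ha) at 500, 250, 125, 60 or 15 g a.i./ha. Fresh-weight growth control was scored 3 weeks later, averaged over three replicates.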

Abutilon theophrasti [6] = experiment: as above; assay type: in vivo
In short: as §3

Digitaria sanguinalis [7] = experiment: as above; assay type: in vivo
In short: as §3

Echinochloa crusgalli = experiment: as above; assay type: in vivo
In short: as §3

Stellaria media = experiment: as above; assay type: in vivo
In short: as §3

Amaranthus retroflexus = experiment: as above; assay type: in vivo
In short: as §3

Echinochloa crusgali = experiment: Transplanted rice safety evaluation and weed control effect evaluation in rice field; assay type: in vivo; details: Table 7, dose 125 g a.i./ha, 14 days after treatment
In short: (§4)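 Paddy-soil pots, seeds sown and flooded (0.5-1 cm, then 3-4 cm water); Sagittaria grown from tubers. WP or SC dilutions dripped on at 0.5-leaf stage (Sagittaria at primary leaf). Visual 0-5 scoring of weeds at 14 days, rice at 21 days.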

Monochoria vaginalis = experiment: as above; assay type: in vivo; details: Table 7, dose 125 g a.i./ha, 14 days after treatment
In short: as §4

Scirpus juncoides = experiment: as above; assay type: in vivo; details: Table 7, dose 125 g a.i./ha, 14 days after treatment
In short: as §4

Rice (Longyang 16) = experiment: Post-emergence control experiment of R configuration compound activity (directly sowed rice 1.5-2 leaf stage, 25 days); assay type: in vivo
Description: as §1
Longyang 16 is a representative and important long-grain fragrant rice in Northeast China. Long-grain fragrant rice is more sensitive to herbicides, especially to HPPD herbicides such as Mesotrione, Benzobicylon and the like, which are prone to causing phytotoxicity.

Rice = experiment: Transplanted rice safety evaluation and weed control effect evaluation in rice field; assay type: in vivo, rice (japonica rice/Indica rice); details: Table 7, dose 125 g a.i./ha, 21 days after treatment
In short: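 Japonica and Indica rice at 3-leaf stage transplanted into flooded paddy soil (3-4 cm water). Compound applied 5 days after transplanting. Weeds scored visually on 0-5 scale at 14 days; rice injury at 21 days.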

[8] = tested on: rice and Echinochloa crusgali; experiment: Herbicide selection index between rice and Echinochloa crusgali; assay type: in vivo; details: average dose causing 10% phytotoxicity to rice divided by average dose causing 90% control efficiency to Echinochloa crusgali

SMILES: CCC[S+]([O-])c1c(C(F)(F)F)ccc(C(=O)Nc2nnc(C)o2)c1F (stereo not drawn) [Compound 1-8]
- inhibition at 30 g/ha (Green Setaria viridis; read-out: Green Setaria viridis (30 g a.i./ha) inhibition rate): 10%
- inhibition at 60 g/ha (Green Setaria viridis; read-out: Green Setaria viridis (60 g a.i./ha) inhibition rate): 90%
- inhibition at 60 g/ha (Leptochloa chinensis; read-out: Leptochloa chinensis (60 g a.i./ha) inhibition rate): 30%
- inhibition at 125 g/ha (Leptochloa chinensis; read-out: Leptochloa chinensis (125 g a.i./ha) inhibition rate): 80%
- inhibition at 30 g/ha (Abutilon theophrasti [1]): 90%
- inhibition at 30 g/ha (Digitaria sanguinalis [2]): 80%
- Indica rice (Huanghuazhan) (plant damage level) [3]: 0 (Level 0: growth control rate is less than 5%)
- Japonica rice (Huaidao No. 5) (plant damage level) [4]: 0 (Level 0: growth control rate is less than 5%)
- activity on the gramineous weed relative to Compound 1-2 [5]: much more higher
- Setaria viridis (activity level) (Setaria viridis): 5 (Level 5: growth control rate is above 85%)
- Abutilion theophrasti (activity level) (Abutilon theophrasti [6]; Table 2, dose 60 g a.i./ha): 5 (Level 5: growth control rate is above 85%)
- Abutilion theophrasti (activity level) (Abutilon theophrasti [6]; Table 2, dose 125 g a.i./ha): 5 (Level 5: growth control rate is above 85%)
- Abutilon theophrasti (activity level) (Abutilon theophrasti [6]; Table 3, dose 60 g a.i./ha): 5 (Level 5: growth control rate is above 85%)
- Digitaria sanguinalis (activity level) (Digitaria sanguinalis [7]; Table 2, dose 60 g a.i./ha): 5 (Level 5: growth control rate is above 85%)
- Digitaria sanguinalis (activity level) (Digitaria sanguinalis [7]; Table 2, dose 125 g a.i./ha): 5 (Level 5: growth control rate is above 85%)
- Digitaria sanguinahs (activity level) (Digitaria sanguinalis [7]; Table 3, dose 60 g a.i./ha): 5 (Level 5: growth control rate is above 85%)
- Echinochloa crusgah (activity level) (Echinochloa crusgalli; Table 2, dose 60 g a.i./ha): 5 (Level 5: growth control rate is above 85%)
- Echinochloa crusgah (activity level) (Echinochloa crusgalli; Table 2, dose 125 g a.i./ha): 5 (Level 5: growth control rate is above 85%)
- Echinochloa crusgali (activity level) (Echinochloa crusgalli; Table 3, dose 60 g a.i./ha): 5 (Level 5: growth control rate is above 85%)
- Stellaria media (activity level) (Stellaria media; Table 2, dose 60 g a.i./ha): 5 (Level 5: growth control rate is above 85%)
- Stellaria media (activity level) (Stellaria media; Table 2, dose 125 g a.i./ha): 5 (Level 5: growth control rate is above 85%)
- Amaranthus retroflexus (activity level) (Amaranthus retroflexus; Table 2, dose 60 g a.i./ha): 5 (Level 5: growth control rate is above 85%)
- Amaranthus retroflexus (activity level) (Amaranthus retroflexus; Table 2, dose 125 g a.i./ha): 5 (Level 5: growth control rate is above 85%)
- Echinochloa crusgali (activity level) (Echinochloa crusgali): 5 (Level 5: growth control rate is above 85%)
- Monochoria vaginalis (activity level) (Monochoria vaginalis): 5 (Level 5: growth control rate is above 85%)
- Scirpus juncoides (activity level) (Scirpus juncoides): 5 (Level 5: growth control rate is above 85%)
- Rice (Longyang 16) (250 g a.i./ha) inhibition rate (Rice (Longyang 16); 250 g a.i./ha): 5%
- Rice (Longyang 16) (500 g a.i./ha) inhibition rate (Rice (Longyang 16); 500 g a.i./ha): 15%
- Rice (safety level) (Rice): 0 (Level 0: growth control rate is less than 5%)
- Selection index between rice and Echinochloa crusgali [8]: >5
